# Experimental data taken from patent US9302999B2, “Substituted triazoles as herbicides” (E. I. DU PONT DE NEMOURS AND COMPANY, priority 2012, dated 2016).
# Read-outs that look alike come from different tables or passages of the source.
# Assays:
# Format in all cases: in vivo
# [1] = test system: galium (catchweed bedstraw, Galium aparine); test: Test D pre-/postemergence: galium
# Outline: (§1)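 Visual 0–100 rating versus untreated controls (0 no effect, 100 complete control), taken 14 to 21 days after treatment in a controlled growth environment. Preemergence: silt loam soil. Postemergence: peat moss/vermiculite medium, plants 2 to 18 cm, 1- to 4-leaf stage. Solvent mixture with surfactant.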
# [2] = test system: ragweed (common ragweed, Ambrosia elation); test: Test C pre-/postemergence: ragweed
# Outline: (§2)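 Preemergence on seeds in loam/sand, postemergence on 2–18 cm (1–4-leaf) plants in peat-based medium; compounds in non-phytotoxic solvent with surfactant. After 13–15 days in greenhouse, visual rating versus controls, 0 (no effect) to 100 (complete control).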
# [3] = test system: barnyardgrass (Echinochloa crus-galli); test: Test C flooded paddy test: barnyardgrass; settings: Echinochloa crus-galli, scale 0 to 100 (0 no effect, 100 complete control), read-out: Plant response rating, Barnyardgrass; for pest or weed control at 62 g/ha: 62 g ai/ha; for pest or weed control at 125 g/ha: 125 g ai/ha; for pest or weed control at 250 g/ha: 250 g ai/ha; for pest or weed control at 31 g/ha: 31 g ai/ha
# Outline: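 Plants were grown to the 2-leaf stage, pots flooded to 3 cm above soil, and test compounds applied directly to the paddy water, with that depth held throughout. After 13 to 15 days in a greenhouse, injury was visually rated against controls on a 0 (no effect) to 100 (complete control) scale.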
# [4] = test system: crabgrass, large (large crabgrass, Digitaria sanguinalis); test: Test A pre-/postemergence: crabgrass, large; settings: for pest or weed control at 125 g/ha / pest or weed control at 500 g/ha: Digitaria sanguinalis, 240 h
# Outline: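 Soil medium was loam blended with sand; treatments pre- and postemergence were applied concurrently, postemergence at one- to two-leaf stage. Approximately ten days in greenhouse preceded visual comparison with untreated controls, scored 0 (no effect) to 100 (complete control).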
# [5] = test system: bromegrass, downy (downy bromegrass, Bromus tectorum); test: Test C pre-/postemergence: bromegrass, downy
# Outline: as §2
# [6] = test system: field poppy (Papaver rhoeas); test: Test D pre-/postemergence: field poppy
# Outline: as §1
# [7] = Postemergence, 31 g ai/ha, scale 0 to 100 (0 no effect, 100 complete control)
# [8] = Postemergence, 62 g ai/ha, scale 0 to 100 (0 no effect, 100 complete control)
# [9] = Postemergence, 125 g ai/ha, scale 0 to 100, 0 no effect, 100 complete control
# [10] = Postemergence, 250 g ai/ha, scale 0 to 100 (0 no effect, 100 complete control)
# [11] = Postemergence, 16 g ai/ha, scale 0 to 100
# [12] = Preemergence, 16 g ai/ha, scale 0 to 100 (0 no effect, 100 complete control)
# [13] = Preemergence, 31 g ai/ha, scale 0 to 100 (0 no effect, 100 complete control)
# [14] = Preemergence, 125 g ai/ha, scale 0 to 100
# [15] = Preemergence, 250 g ai/ha, scale 0 to 100
# [16] = Postemergence, 250 g ai/ha, scale 0 to 100
# [17] = Flood (flooded paddy test), visual rating after 13 to 15 days
# [18] = post-emergence, Postemergence, 125 g ai/ha, 0 to 100 scale, 0 is no effect, 100 is complete control, read-out: Crabgrass, Large plant response rating
# [19] = post-emergence, Postemergence, 500 g ai/ha, visual rating on 0 to 100 scale (0 no effect, 100 complete control), approximately ten days, read-out: Crabgrass, Large plant response rating
# [20] = Preemergence, 31 g ai/ha, scale of 0 to 100, 0 is no effect, 100 is complete control
# [21] = Preemergence, 62 g ai/ha, scale 0 to 100, 0 no effect, 100 complete control
# [22] = Preemergence, 125 g ai/ha, scale 0 to 100, 0 no effect, 100 complete control
# [23] = Preemergence, 250 g ai/ha, scale 0 to 100, 0 no effect, 100 complete control
# [24] = Preemergence, 62 g ai/ha, scale 0 to 100
# [25] = Preemergence, 62 g ai/ha, scale of 0 to 100, 0 is no effect, 100 is complete control
# [26] = Preemergence, 31 g ai/ha, scale 0 (no effect) to 100 (complete control)
structure (smiles),measurement,setting,value
"Cc1nn(-c2ccc(F)cc2)nc1Cc1ccnc(C(F)(F)F)c1 [Compound 16, 4-[[2-(4-fluorophenyl)-5-methyl-2H-1,2,3-triazol-4-yl]methyl]-2-(trifluoromethyl)pyridine]",Plant response rating: Galium,[1]; [7],40
same,Plant response rating: Galium,[1]; [8],50
same,Plant response rating: Galium,[1]; [9],60
same,Plant response rating: Galium,[1]; [10],70
same,"Plant response rating, Galium",[1]; [11],20
same,"Plant response rating, Galium",[1]; [12],0
same,"Plant response rating, Galium",[1]; [13],0
same,"Plant response rating, Galium",[1]; [14],20
same,"Plant response rating, Galium",[1]; [15],20
same,"Plant response rating, Ragweed",[2]; [7],5
same,"Plant response rating, Ragweed",[2]; [8],25
same,"Plant response rating, Ragweed",[2]; [9],75
same,"Plant response rating, Ragweed",[2]; [16],75
same,pest or weed control at 62 g/ha,[3]; [17],65%
same,pest or weed control at 125 g/ha,[3]; [17],70%
same,pest or weed control at 250 g/ha,[3]; [17],80%
same,pest or weed control at 31 g/ha,[3]; Flood,25%
same,pest or weed control at 125 g/ha,[4]; [18],90%
same,pest or weed control at 500 g/ha,[4]; [19],90%
same,pest or weed control at 125 g/ha,"[4]; pre-emergence, Preemergence, 125 g ai/ha, 0 to 100 scale (0 no effect, 100 complete control), read-out: Plant response rating, Crabgrass, Large",90%
same,pest or weed control at 500 g/ha,"[4]; pre-emergence, Preemergence, 500 g ai/ha, 0 to 100 scale, 0 is no effect, 100 is complete control, read-out: Plant response rating, Crabgrass, Large",100%
same,"Plant response rating, Bromegrass, Downy",[5]; [7],15
same,"Plant response rating, Bromegrass, Downy",[5]; [8],15
same,"Plant response rating, Bromegrass, Downy",[5]; [9],25
same,"Plant response rating, Bromegrass, Downy",[5]; [16],25
same,"Plant response rating, Bromegrass, Downy",[5]; [20],5
same,"Plant response rating, Bromegrass, Downy",[5]; [21],10
same,"Plant response rating, Bromegrass, Downy",[5]; [22],50
same,"Plant response rating, Bromegrass, Downy",[5]; [23],100
same,Plant response rating: Field Poppy,[6]; [7],100
same,Plant response rating: Field Poppy,[6]; [8],100
same,Plant response rating: Field Poppy,[6]; [9],100
same,Plant response rating: Field Poppy,[6]; [10],100
same,"Plant response rating, Field Poppy",[6]; [11],0
same,"Plant response rating, Field Poppy",[6]; [12],100
same,"Plant response rating, Field Poppy",[6]; [13],100
same,"Plant response rating, Field Poppy",[6]; [24],100
same,"Plant response rating, Field Poppy",[6]; [14],100
same,"Plant response rating, Field Poppy",[6]; [15],100
"Cc1nn(-c2ccc(F)cc2)nc1Oc1ccnc(C(F)(F)F)c1 [Compound 129, 4-[[2-(4-fluorophenyl)-5-methyl-2H-1,2,3-triazol-4-yl]oxy]-2-(trifluoromethyl)pyridine]",Plant response rating: Galium,[1]; [7],50
same,Plant response rating: Galium,[1]; [8],75
same,Plant response rating: Galium,[1]; [9],85
same,Plant response rating: Galium,[1]; [10],98
same,"Plant response rating, Galium",[1]; [11],40
same,"Plant response rating, Galium",[1]; [13],0
same,"Plant response rating, Galium",[1]; [24],100
same,"Plant response rating, Galium",[1]; [14],100
same,"Plant response rating, Galium",[1]; [15],100
same,"Plant response rating, Ragweed",[2]; [7],40
same,"Plant response rating, Ragweed",[2]; [8],40
same,"Plant response rating, Ragweed",[2]; [9],45
same,"Plant response rating, Ragweed",[2]; [16],45
same,"Plant response rating, Ragweed",[2]; [20],0
same,"Plant response rating, Ragweed",[2]; [25],0
same,"Plant response rating, Ragweed",[2]; [22],0
same,"Plant response rating, Ragweed",[2]; [23],55
same,pest or weed control at 125 g/ha,[3]; [17],80%
same,pest or weed control at 250 g/ha,[3]; [17],85%
same,pest or weed control at 31 g/ha,[3]; Flood,55%
same,pest or weed control at 62 g/ha,[3]; Flood,75%
same,pest or weed control at 125 g/ha,[4]; [18],90%
same,pest or weed control at 500 g/ha,[4]; [19],90%
same,pest or weed control at 125 g/ha,"[4]; pre-emergence, Preemergence, 125 g ai/ha, 0 to 100 scale where 0 is no effect and 100 is complete control, read-out: Plant response rating, Crabgrass, Large",100%
same,pest or weed control at 500 g/ha,"[4]; pre-emergence, Preemergence, 500 g ai/ha, 0 to 100 scale (0 no effect, 100 complete control), read-out: Plant response rating, Crabgrass, Large",100%
same,"Plant response rating, Bromegrass, Downy",[5]; [7],35
same,"Plant response rating, Bromegrass, Downy",[5]; [8],35
same,"Plant response rating, Bromegrass, Downy",[5]; [9],40
same,"Plant response rating, Bromegrass, Downy",[5]; [16],40
same,"Plant response rating, Bromegrass, Downy",[5]; [20],30
same,"Plant response rating, Bromegrass, Downy",[5]; [21],80
same,"Plant response rating, Bromegrass, Downy",[5]; [22],95
same,"Plant response rating, Bromegrass, Downy",[5]; [23],100
same,Plant response rating: Field Poppy,[6]; [7],100
same,Plant response rating: Field Poppy,[6]; [8],100
same,Plant response rating: Field Poppy,[6]; [9],100
same,Plant response rating: Field Poppy,[6]; [10],85
same,"Plant response rating, Field Poppy",[6]; [11],100
same,"Plant response rating, Field Poppy",[6]; [12],0
same,"Plant response rating, Field Poppy",[6]; [13],75
same,"Plant response rating, Field Poppy",[6]; [24],70
same,"Plant response rating, Field Poppy",[6]; [14],100
same,"Plant response rating, Field Poppy",[6]; [15],100
CCOc1nn(-c2ccc(F)cc2)nc1Cc1ccnc(C(F)F)c1 [Compound 195],Plant response rating: Galium,[1]; [7],30
same,Plant response rating: Galium,[1]; [8],50
same,Plant response rating: Galium,[1]; [9],75
same,Plant response rating: Galium,[1]; [10],80
same,"Plant response rating, Galium",[1]; [11],20
same,"Plant response rating, Galium",[1]; [12],0
same,"Plant response rating, Galium",[1]; [13],0
same,"Plant response rating, Galium",[1]; [24],10
same,"Plant response rating, Galium",[1]; [14],30
same,"Plant response rating, Galium",[1]; [15],80
same,"Plant response rating, Ragweed",[2]; [8],50
same,"Plant response rating, Ragweed",[2]; [9],70
same,"Plant response rating, Ragweed",[2]; [10],85
same,"Plant response rating, Ragweed",[2]; [26],15
same,"Plant response rating, Ragweed",[2]; [25],20
same,"Plant response rating, Ragweed",[2]; [22],20
same,"Plant response rating, Ragweed",[2]; [23],55
same,"Plant response rating, Crabgrass, Large","[4]; Postemergence, 125 g ai/ha, 0 to 100 scale, 0 is no effect, 100 is complete control",90
same,"Crabgrass, Large plant response rating","[4]; Postemergence, 500 g ai/ha, 0 to 100 scale, 0 is no effect, 100 is complete control",90
same,"Plant response rating, Crabgrass, Large","[4]; Preemergence, 125 g ai/ha, 0 to 100 scale where 0 is no effect and 100 is complete control",100
same,"Plant response rating, Crabgrass, Large","[4]; Preemergence, 500 g ai/ha, 0 to 100 scale (0 no effect, 100 complete control)",100
same,"Plant response rating, Bromegrass, Downy",[5]; [7],15
same,"Plant response rating, Bromegrass, Downy",[5]; [8],30
same,"Plant response rating, Bromegrass, Downy",[5]; [9],50
same,"Plant response rating, Bromegrass, Downy",[5]; [16],60
same,"Plant response rating, Bromegrass, Downy",[5]; [26],15
same,"Plant response rating, Bromegrass, Downy",[5]; [25],45
same,"Plant response rating, Bromegrass, Downy",[5]; [22],85
same,"Plant response rating, Bromegrass, Downy",[5]; [23],90
same,Plant response rating: Field Poppy,[6]; [7],75
same,Plant response rating: Field Poppy,[6]; [8],95
same,Plant response rating: Field Poppy,[6]; [9],100
same,Plant response rating: Field Poppy,[6]; [10],100
same,"Plant response rating, Field Poppy",[6]; [11],35
same,"Plant response rating, Field Poppy",[6]; [12],30
same,"Plant response rating, Field Poppy",[6]; [13],40
same,"Plant response rating, Field Poppy",[6]; [24],60
same,"Plant response rating, Field Poppy",[6]; [14],100
same,"Plant response rating, Field Poppy",[6]; [15],100
